Key:
AtT-20 cells = assay: Reference Example A10: inhibitory activity of fatty acids against CRF-induced ACTH secretion from AtT-20 cells; conditions: 10 nM CRF; 90 minutes; fatty acids conjugated with BSA; adhesive AtT-20 substrain (FIG. 13)
human 14273 receptor [1] = target: T1, human 14273 receptor (Homo sapiens, UniProt Q5NUL3); assay: Reference Example A2: reactivity of fatty acids, intracellular calcium by FLIPR in CHO-K1 cells expressing human 14273 receptor; assay type: cell-based; conditions: 30 μM fatty acid; CHO-K1 cells transiently expressing human 14273; FLIPR (FIG. 1-5)
T1 construct: expressed in transfected cells
T1 sequence (Q5NUL3 1-361): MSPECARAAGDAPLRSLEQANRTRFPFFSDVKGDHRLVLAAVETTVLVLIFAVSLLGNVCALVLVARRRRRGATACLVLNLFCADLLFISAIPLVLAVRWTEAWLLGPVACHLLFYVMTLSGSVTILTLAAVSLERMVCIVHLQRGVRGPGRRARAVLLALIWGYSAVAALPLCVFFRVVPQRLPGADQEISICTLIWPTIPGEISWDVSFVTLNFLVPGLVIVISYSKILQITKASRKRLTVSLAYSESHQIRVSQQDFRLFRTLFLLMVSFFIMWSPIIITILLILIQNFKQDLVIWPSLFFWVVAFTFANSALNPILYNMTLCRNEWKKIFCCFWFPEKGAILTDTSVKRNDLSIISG
Protocol: (§1) CHO-K1 cell line was cultured using Ham's F-12 medium (Invitrogen) containing 10% fetal bovine serum (Invitrogen), unless otherwise described. On the day before transfection was conducted, 4.5×10^5 cells were dispersed per 10 cm^2, and cultured at 37° C. for 15 hours by a CO2 incubator adjusted to a CO2 concentration of 5%. Transfection was carried out using a Lipofectamine reagent (Invitrogen) in accordance with the instruction accompanying the reagent. In the case of using a 6-well plate as culture dish, the following steps were performed. First of all, two tubes having a volume of 1.5 ml each were provided, and 100 μl of an Opti-MEM-I medium (Invitrogen) was dispensed to each of the tubes. Next, after adding 1 μg of an expression vector to one tube and adding 6 μl of the Lipofectamine reagent to the other tube, both of them were mixed, and left at rest at room temperature for 20 minutes. A mixture for transfection, in which 800 μl of the Opti-MEM-I medium was added to this solution, was added to the CHO-K1 cells previously washed using the Opti-MEM-I medium, and then the cells were cultured in the CO2 incubator for 6 hours. The cells after culturing were rinsed using PBS (Invitrogen), then detached using a 0.05% trypsin/EDTA solution (Invitrogen), and recovered through centrifugation. The number of the obtained cells was measured, and the cells were diluted to a concentration of 5×10^4 cells per 100 μl of the medium. This dilution was separately injected to a Black-walled 96-well plate (Costar) in an amount of 100 μl per well, and then the cells were incubated overnight in a CO2 incubator. To the CHO-K1 cells which transiently expressed the receptor during the transfection operation, various test samples were added, and the change in the intracellular calcium concentration during this operation was measured using FLIPR (Molecular Device). In order to measure the change in the intracellular calcium concentration with FLIPR, the following pretreatment was performed. First, Assay Buffer for washing cells was prepared in order to add a fluorescent dye Fluo3-AM (DOJIN) to the cells, or to wash cells immediately before performing the FLIPR assay. To a solution prepared by adding 20 ml of 1 M HEPES (pH 7.4) (DOJIN) to 1000 ml of HBSS (Invitrogen) (hereinafter, HBSS/HEPES solution), 10 ml of a solution prepared by dissolving 710 mg of probenecid (Sigma) in 5 ml of a 1 N NaOH solution, and then further added 5 ml of the HBSS/HEPES solution thereto was added, and this solution was used as the Assay Buffer. […] After performing the pretreatment as described above, the changes in the intracellular calcium concentration after addition of various test samples were measured using FLIPR.

mouse 14273 receptor = target: T2, mouse 14273 receptor (Mus musculus, UniProt Q7TMA4); assay: Reference Example A2: reactivity of fatty acids, intracellular calcium by FLIPR in CHO-K1 cells expressing mouse 14273 receptor; assay type: cell-based; conditions: 30 μM fatty acid; CHO-K1 cells transiently expressing mouse 14273; FLIPR (FIG. 1-5)
T2 construct: expressed in transfected cells; host or cells: CHO-K1 cells, transient transfection with Lipofectamine
T2 sequence (Q7TMA4 1-361): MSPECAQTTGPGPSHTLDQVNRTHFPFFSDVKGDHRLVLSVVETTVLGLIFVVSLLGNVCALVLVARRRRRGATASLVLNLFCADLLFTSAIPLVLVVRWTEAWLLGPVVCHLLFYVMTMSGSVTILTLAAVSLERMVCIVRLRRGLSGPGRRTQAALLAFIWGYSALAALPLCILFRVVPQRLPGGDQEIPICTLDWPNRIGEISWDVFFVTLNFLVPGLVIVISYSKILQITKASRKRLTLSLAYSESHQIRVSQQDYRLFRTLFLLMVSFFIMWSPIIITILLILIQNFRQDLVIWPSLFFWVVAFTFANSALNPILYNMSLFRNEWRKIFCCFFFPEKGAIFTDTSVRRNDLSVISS
Protocol: as §1

human 14273 receptor [2] = target: T1, human 14273 receptor; assay: Test Example 1: regulating effect for 14273 receptor function (agonist effect), change in intracellular calcium level by FLIPR; assay type: cell-based; conditions: CHO cell line (No. 104) expressing human 14273 receptor, change of fluorescent intensity after 35 seconds
Protocol: CHO cell lines (No. 104) in which a human 14273 receptor has expressed was diluted to contain 3×10^4/100 μl cells, and dispensed in Black walled 96-well plate (Costar) at a density of 100 μl/well, followed by culturing overnight in a CO2 incubator. A change in intracellular calcium level was measured using FLIPR (Molecular Device). The method is described as below. 50 μg of Fluo-3AM (DOJIN) was dissolved in 21 μl of DMSO (DOJIN) and an equal volume of 20% pluronic acid (Molecular Probes) was added thereto, followed by mixing them. The mixture was added to 10.6 ml of the assay buffer [which is prepared by adding 10 ml of a solution, which is prepared by adding 20 ml of 1 M HEPES (pH 7.4, DOJIN) to 1 L of HBSS (Invitrogen), dissolving 710 mg of probenecid (Sigma) in 5 ml of 1 N NaOH, and further adding 5 ml of the above-mentioned HBSS/HEPES solution and mixing it.] supplemented with 105 μl of fetal bovine serum to prepare a fluorescent dye solution. The medium of the cell plate was removed, the fluorescent dye solution was dispensed in 100 μl each per well. The culturing was performed in a CO2 incubator for 1 hour to incorporate the fluorescent dye into the cells. The cells after culturing were washed with the assay buffer. The compounds to be added to the cells were diluted to each concentration with a buffer solution to which CHAPS (DOJIN) was added in 0.015%, and dispensed in a plate for the test sample. Following the pretreatment above, a change in intracellular calcium level after addition of the compound was determined with FLIPR to investigate the agonist effect. An EC50 value was calculated from dose-reaction curve using the change of fluorescent intensity after 35 seconds from the reaction initiation.

Row | SMILES | EC50 (human 14273 receptor [2]) [µM] | also measured
1 | O=C(O)CCc1ccc(OCc2cccc(OCC(=O)O)c2)c(F)c1 [Example 107, 3-(4-{[3-(carboxymethoxy)benzyl]oxy}-3-fluorophenyl)propanoic acid] | – | melting point: 150 to 151 °C
2 | CCCCC/C=C\C/C=C\C/C=C\CCCCC(=O)O [γ-linolenic acid] | – | suppression of CRF-induced ACTH secretion (AtT-20 cells): significant suppression; response (increase in the intracellular calcium concentration) (human 14273 receptor [1]): specifically responsed; response (increase in the intracellular calcium concentration) (mouse 14273 receptor): specifically responsed
3 | CCCC(=O)O [butyric acid] | – | suppression of CRF-induced ACTH secretion (AtT-20 cells): did not exhibit significant inhibition
4 | Cl.NCCOc1cc(COc2ccc(CCC(=O)O)cc2F)cc(Oc2ccccc2)c1 | – | melting point: 182 to 183 °C
5 | CCCCC/C=C\C/C=C\C/C=C\C/C=C\CCCC(=O)O [arachidonic acid] | – | response (increase in the intracellular calcium concentration) (human 14273 receptor [1]): specifically responsed; response (increase in the intracellular calcium concentration) (mouse 14273 receptor): specifically responsed
6 | O=C(O)CCc1cc(F)c(OCc2ccccc2-c2ccccc2)c(F)c1 [Example 20, 4-([1,1′-Biphenyl]-2-ylmethoxy)-3,5-difluorobenzenepropanoic acid] | ≤ 10 | –
7 | O=C(O)CCc1cc(F)c(OCc2cccc(Oc3ccccc3)c2)c(F)c1 [Example 2, 3,5-Difluoro-4-[(3-phenoxyphenyl)methoxy]benzenepropanoic acid] | ≤ 10 | –
8 | CCOc1cccc(COc2c(F)cc(CCC(=O)O)cc2F)c1 [Example 8, 4-[(3-Ethoxyphenyl)methoxy]-3,5-difluorobenzenepropanoic acid] | ≤ 10 | –
9 | COc1cccc(COc2c(F)cc(CCC(=O)O)cc2F)c1 [Example 6, 3,5-Difluoro-4-[(3-methoxyphenyl)methoxy]benzenepropanoic acid] | ≤ 10 | –
10 | O=C(O)CCc1ccc(OCc2ccccc2Oc2ccccc2)c(F)c1 [Example 18, 3-Fluoro-4-[(2-phenoxyphenyl)methoxy]benzenepropanoic acid] | ≤ 10 | –
11 | O=C(O)CCc1cc(F)c(OCc2ccccc2Oc2ccccc2)c(F)c1 [Example 16, 3,5-Difluoro-4-[(2-phenoxyphenyl)methoxy]benzenepropanoic acid] | ≤ 10 | –
12 | CC/C=C\C/C=C\C/C=C\CCCCCCCC(=O)O [α-linolenic acid] | – | suppression of CRF-induced ACTH secretion (AtT-20 cells): significant suppression
13 | CC(C)COc1cccc(COc2c(F)cc(CCC(=O)O)cc2F)c1 [Example 135, 3-{3,5-difluoro-4-[(3-isobutoxybenzyl)oxy]phenyl}propanoic acid] | ≤ 10 | –
14 | CC(C)Oc1cccc(COc2c(F)cc(CCC(=O)O)cc2F)c1 [Example 10] | ≤ 10 | –
15 | CCCCC/C=C\C/C=C\CCCCCCCC(=O)O [linoleic acid] | – | response (increase in the intracellular calcium concentration) (human 14273 receptor [1]): specifically responsed; response (increase in the intracellular calcium concentration) (mouse 14273 receptor): specifically responsed
16 | O=C(O)CCc1ccc(OCc2cc(OCC(=O)O)cc(Oc3ccccc3)c2)c(F)c1 [Example 129, 3-(4-{[3-(carboxymethoxy)-5-phenoxybenzyl]oxy}-3-fluorophenyl)propanoic acid] | – | melting point: 122 to 124 °C
17 | CCCCCC/C=C\CCCCCCCC(=O)O [palmitoleic acid] | – | response (increase in the intracellular calcium concentration) (human 14273 receptor [1]): specifically responsed; response (increase in the intracellular calcium concentration) (mouse 14273 receptor): specifically responsed
18 | O=C(O)CCc1cc(F)c(OCc2cccc(OC3CCCC3)c2)c(F)c1 [Example 58, 3-(4-{[3-(cyclopentyloxy)benzyl]oxy}-3,5-difluorophenyl)propanoic acid] | ≤ 10 | –
19 | O=C(O)CCc1ccc(OCc2ccccc2-c2ccccc2)c(F)c1 [Example 22, 4-([1,1′-Biphenyl]-2-ylmethoxy)-3-fluorobenzenepropanoic acid] | ≤ 10 | –

Second part, led by results:

Row | EC50 (human 14273 receptor [2]) [µM] | SMILES | also measured
20 | ≤ 10 | O=C(O)CCc1ccc(OCc2cccc(-c3ccccc3)c2)c(Cl)c1 [Reference Example 18, 4-([1,1′-Biphenyl]-3-ylmethoxy)-3-chlorobenzenepropanoic acid] | –
21 | ≤ 10 | CCOc1cc(COc2ccc(CCC(=O)O)cc2F)cc(OCC)c1 [Example 96, 3-{4-[(3,5-diethoxybenzyl)oxy]-3-fluorophenyl}propanoic acid] | –
22 | ≤ 10 | O=C(O)CCc1cc(F)c(OCc2cccc(Oc3nccs3)c2)c(F)c1 [Example 68, 3-(3,5-difluoro-4-{[3-(1,3-thiazol-2-yloxy)benzyl]oxy}phenyl)propanoic acid] | –
23 | ≤ 10 | CC1(C)Cc2ccccc2C1Oc1ccc(CCC(=O)O)cc1 (centres unmarked) [Reference Example 25, 4-[(2,3-Dihydro-2,2-dimethyl-1H-inden-1-yl)oxy]benzenepropanoic acid] | –
24 | ≤ 10 | O=C(O)CCc1ccc(OCc2cccc(Oc3ccc(Cl)cc3)c2)c(F)c1 [Example 163, 3-(3-fluoro-4-{[3-(4-chlorophenoxy)benzyl]oxy}phenyl)propanoic acid] | –
